The text below walks through data of patent US11084829B2, “Ubiquitin-specific-processing protease 7 (USP7) modulators and uses thereof” (RAPT THERAPEUTICS, INC., priority 2018, dated 2021).

What all share (format): cell-based
Experiment [1] has as its system H526 cells. Nature of the experiment: Compound synergy (Bliss independence) in H526 cells. How it is done:
CHP-134 was purchased from Sigma Aldrich, MOLM-13 was purchased from AddexBio, and NB-1 was purchased from Sekisui XenoTech. All other cell lines were purchased from American Type Culture Collection. For all cell lines, identity was confirmed by short tandem repeat profiling and culturing was performed in recommended growth medium. For studies evaluating cellular effects of compound treatment, 250 to 2,000 cells in 40 μl of recommended medium were seeded per well in 384-well plates (Corning 3764). DMSO-solubilized compounds were added in duplicate in a two-fold dilution series using a D300e Digital Dispenser (Hewlett-Packard). Following a 5-day incubation, cell viability was measured using CellTiter-Glo (Promega) following the manufacturer's instructions. Luminescence was measured using a CLARIOstar plate reader (BMG LABTECH) and normalized to that of DMSO-treated cells. IC50 values were determined by non-linear regression using a 4-parameter fit in Prism (GraphPad Software). Inhibitor profiling of the 430-cell line panel was conducted and analyzed similarly.
Cancer Cell Line Encyclopedia (CCLE) mutation data was downloaded from https://data.broadinstitute.org/ccleiCCLE_DepMap_18Q2_maf_20180502.txt.gz. Genes were considered mutated if they were annotated in CCLE as containing variants that were either a TCGA Hotspot, a COSMIC Hotspot, or a deleterious variant. Genes with at least 6 mutated cell lines out of the 397 cell lines that overlapped with the cell line screening panel were tested one gene at a time in linear models or coordinately in multivariate models where the fraction cell signal at 1 μM compound was the dependent variable. For compound synergy analysis, a Bliss-independence model was used. Briefly, the products of the fraction of maximal cell signal for each of the tested compounds alone were calculated as the expected signal in the absence of any compound interaction. The log2 of the ratio of expected:observed signal was calculated to indicate synergy (positive) or interference (negative) interactions. For in vivo studies, interval-censored survival analysis was performed using the icenReg package (reference: https://cran.r-project.org/web/packages/icenReg/citation.html), using the “ic_par” parametric regression model with proportional hazards and a Weibull distribution.
Tests were conducted to determine whether the USP7 inhibitor 3-((7-(5-chloro-3-methyl-2-(((R)-morpholin-2-yl)methyl)phenyl)thieno[3,2-b]pyridin-2-yl)methyl)-6,6-dimethyl-3-azabicyclo[3.1.0]hexane-2,4-dione potentiates the activity of DNA-damaging agents commonly used for small cell lung cancer chemotherapy, namely carboplatin, doxorubicin, and the PARP inhibitor olaparib.
The effect of combining the USP7 inhibitor 3-((7-(5-chloro-3-methyl-2-(((R)-morpholin-2-yl)methyl)phenyl)thieno[3,2-b]pyridin-2-yl)methyl)-6,6-dimethyl-3-azabicyclo[3.1.0]hexane-2,4-dione with the PIM kinase inhibitor AZD 1208, the PI3K inhibitor pictilisib and the PI3K inhibitor taselisib in the p53 mutant H526 cell line was tested. […] Both PIM and PI3K promote the activity of mammalian target of rapamycin (mTOR), which regulates cellular protein translation and controls phosphorylation of S6 at the Ser235/236 site.

The subject of experiment [2] is phosphorylated S6 (Ser235/236). Briefly: Phospho-S6 ELISA. Conditions: treatment with the compound alone. As for the experimental part:
(§1) For Western blotting, compound-treated cells were lysed in RIPA lysis buffer (ThermoScientific) containing Halt Protease and Phosphatase Inhibitor Cocktail (Life Technologies). Lysates were quantified using the BCA protein assay (Pierce) and equivalent protein was separated by SDS-PAGE (4-12%, ThermoScientific). Following electrophoresis, proteins were transferred to PVDF membranes. […] Caspase activation assays were performed on compound-treated cells using the Caspase-Glo 3/7 Assay Kit (Promega) according to the manufacturer's protocol, and luminescence was measured using a CLARIOstar plate reader (BMG LABTECH). […] Data were collected using FACSCanto (Becton Dickinson) and Attune (Thermo Fisher Scientific) flow cytometers and analyzed with FlowJo software (FlowJo LLC). […] Lysates were quantified using the BCA protein assay (Pierce) and equivalent protein was used in the PathScan Phospho-S6 Ribosomal Protein (Ser235/236) Sandwich ELISA Kit (Cell Signaling) according to the manufacturer's protocol. Absorbance was measured using the Spectramax 300 plate reader (Molecular Devices). […]

In experiment [3] the test system is H526 cells. Briefly: RNASeq transcriptomic profiling and gene set enrichment in H526 cells. Particulars: treatment for 24 or 48 hours. As for the experimental part: RNA was extracted from approximately 1 million cells using the Allprep DNA/RNA Mini Kit (Qiagen). Whole transcriptome non-stranded libraries were prepared using the TruSeq RNA Library Prep Kit v2 (Illumina). Sequencing was performed on Illumina NovaSeq using paired-end mode, 200 cycles, targeting 40 million reads per sample, by MedGenome. Sequencing results were processed on the Seven Bridges Genomics platform through Kallisto Quant (version 0.43.1) aligning to the gencode.v27 transcript reference. Aligned reads were imported by tximport (version 1.10.1) and Treatment fold change and significance were calculated with DESeq2 (version 1.22.2) with an experimental design of “˜Time+Treatment+Time: Treatment” on genes with at least 10 counts. Shrunk log 2 fold changes (lfcShrink function, type=“apeglm”) were used for significance calculation.
In order to identify pathways impacted by USP7 inhibition, RNASeq was used to profile transcriptomic changes in H526 cells following treatment with the USP7 inhibitor 3-((7-(5-chloro-3-methyl-2-(((R)-morpholin-2-yl)methyl)phenyl)thieno[3,2-b]pyridin-2-yl)methyl)-6,6-dimethyl-3-azabicyclo[3.1.0]hexane-2,4-dione for 24 or 48 hours. […] Measurement of transcriptional changes prior to 72 hours should thus uncover programs triggered by USP7 inhibition without being confounded by apoptosis pathways themselves. […]

For experiment [4], the system named is phosphorylated histone H2AX (γ-H2AX). Briefly: γ-H2AX measurement (flow cytometry). How it is done: as §1
(A flow cytometer gives signals particle by particle.)

Experiment [5] concerns H526 cells. Briefly: Apoptosis (caspase-3/7 induction, sub-G1 population) in H526 cells. Conditions: starting 72 hours post treatment, data not shown. As for the experimental part: as §1

In the case of `Cc1cc(Cl)cc(-c2ccnc3cc(CN4C(=O)C5C(C4=O)C5(C)C)sc23)c1C[C@@H]1CNCCO1` (stereo partly drawn) [3-((7-(5-chloro-3-methyl-2-(((R)-morpholin-2-yl)methyl)phenyl)thieno[3,2-b]pyridin-2-yl)methyl)-6,6-dimethyl-3-azabicyclo[3.1.0]hexane-2,4-dione], the synergy with carboplatin entry in experiment [1] (combination with carboplatin) is given as “modest synergy”. The synergy with doxorubicin result in experiment [1] (combination with doxorubicin) was “modest synergy”. In experiment [1] (combination with the PARP inhibitor olaparib), the synergy with olaparib entry was “modest synergy”. In addition, the “synergy when dosed with itself” value in experiment [1] (compound dosed with itself (control)) is “no synergy was observed”. Also, the synergy with pictilisib entry in experiment [1] (p53 mutant, combination with the PI3K inhibitor pictilisib) is “strongly synergized”. Further, in experiment [1] (p53 mutant, combination with the PI3K inhibitor taselisib), the synergy with taselisib entry is “strongly synergized”. In experiment [1] (p53 mutant, combination with the PIM kinase inhibitor AZD 1208), the “synergy with AZD 1208” value is “strongly synergized”. Also, the “levels of phosphorylated S6 (Ser235/236)” value in experiment [2] was “decreased levels of phosphorylated S6 (Ser235/236)”. For the same compound, in experiment [3], the “transcriptomic changes (RNASeq)” value is given as “upregulation of a large number of genes normally silenced by the polycomb repressive complex 2 (PRC2)”. For the same compound, the “levels of phosphorylated histone H2AX (γ-H2AX)” value in experiment [4] (USP7 inhibitor alone) is “did not increase levels of phosphorylated histone H2AX (γ-H2AX)”. The “levels of γ-H2AX” value in experiment [4] (combination of the USP7 inhibitor and carboplatin) is “increased γ-H2AX”. Further, the “apoptosis (caspase-3/7 induction, sub-G1 population)” value in experiment [5] is “induced apoptosis in H526 cells in a dose-dependent manner”.
